How the values were obtained:
human patients = assay: 14-day multiple dose study, 1600 mg daily: plasma triglycerides and fasting plasma glucose (Example 1); type: in vivo
Experimental: Twelve patients were treated with 16α-fluoro-5-androstene-17-one.
Smoking and intake of xanthine-containing beverages or food (coffee, tea, cola, chocolate) and alcohol within 24 hours, before and during the stay in the clinical research facilities were not allowed.
The human patients received 1600 mg of 16α-fluoro-5-androstene-17-one daily. Controls were set up so that they received 1600 mg of placebo. The triglyceride concentration in the plasma were measured pretreatment and at the end of the study. There was a significant triglyceride-lowering effect caused by the drug in the 14-day, multiple dose, study.
In 12 patients (excluding 2 placebos) receiving 1600 mg of 16α-fluoro-5-androsten-17-one daily, 4 patients, 3 males and one person, had pretreatment triglyceride levels>200 mg/dL. In this group of 4 patients there was a highly significant reduction in triglyceride values, whereas there was no apparent effect in the 8 patients with non-elevated triglycerides. The decline in one patient was additionally quite striking. […]
In addition, the fasting plasma glucose (FPG) levels were also measured in the patients before and after treatment. In the study, 3 of the 4 patients with elevated triglycerides had pre-treatment FPG levels>6.1 mM. The American Diabetes Association (ADA) has recently classified individuals with FPG of 6.1-6.9 mM as having impaired fasting glucose (IFG). Such individuals have 40% probability of developing ADA criteria for diabetes within 5 years.

[1] = test system: patients with Metabolic Syndrome; assay: Phase I/II buccal tablet study: triglyceride and HDL levels, incl. obese subset (Examples 7 and 8); type: in vivo, human
Experimental: The study was a phase I/II randomized, double blind, dose-ranging, placebo-controlled, evaluation of the safety, tolerance, and activity on lipid laboratory markers after transmucosal (buccal) administration of two dose levels (20 mg or 80 mg) of fluasterone (16α-fluoro-5-androsten-17-one) compared to placebo in patients with Metabolic Syndrome. Study treatment consisted of eight weeks of buccal tablet administration of fluasterone or placebo control and subsequent follow-up for two weeks.
After patient consent had been obtained, patients were screened for eligibility into the study. Following informed consent, screening and laboratory testing, patients entered a six-week dietary run-in phase during which they followed a Step II AHA diet, and discontinued all lipid-lowering agents. At 4 weeks into the dietary run-in phase, qualifying lipid and endocrine laboratory measurements were performed. After the run-in phase, patients were randomized to receive either fluasterone or placebo control. Patients received fluasterone or placebo daily for 8 weeks. Patients were followed for an additional 2 weeks for total study duration of 16 weeks. The dose levels evaluated in this study were either 20 mg or 80 mg buccal tablets of fluasterone or placebo control that were formulated to dissolve between the lower gingival surfaces of the jaw and buccal mucosa of the cheek pouch.
Fluasterone or placebo equivalent was administered as either one or four buccal tablets. Each buccal tablet contained 16-α-fluoro-5-androsten-17-one, mannitol, crospovidone, magnesium stearate, polyethylene glycol 3350, silica gel and sodium lauryl sulfate. Patients were instructed to ingest water prior to placing the buccal tablets in their mouth. The tablets were held in the mouth without disturbance for approximately 10 minutes. Patients were instructed not to chew or swallow the tablets and not drink or eat for 30 minutes after study drug administration.
The study consisted of a 6-week dietary run-in phase during which they followed a Step II AHA diet and discontinued all lipid-lowering agents. After the run-in phase, patients who qualified based on lipid and endocrine laboratory measurements at the qualifying visit (week −2) were randomized to receive fluasterone or placebo control. Patients received fluasterone or placebo control daily for 8 weeks. Patients were followed for an additional 2 weeks to collect adverse events and an additional lipid profile for total study duration of 16 weeks.
Blood samples were collected for lipid determinations at the qualifying visit (week −2), at study day 1, and at weeks 2, 4, 6, 8, and 10.
There were 8 patients treated with 80 mg fluasterone, 9 with 20 mg fluasterone, 3 patients with 80 mg placebo, and 4 patients with 20 mg placebo.
The triglyceride level in the 80 mg fluasterone group declined from baseline by 34% at week […] and by 35% at week […]. In the combined placebo group at the corresponding time points the triglyceride levels increased by 6% and 7% respectively.

[2] = test system: male BKS.Cg-m+/+Leprdb mice; assay: Mortality during treatment of diabetic mice (Example 9); type: in vivo
[3] = 20 mg buccal daily, Week 2, 4, 6, & 8
[4] = 80 mg buccal daily, Week 2, 4, 6, & 8
[5] = obese subset, 80 mg buccal daily, Week 2, 4, 6, and 8
[6] = obese subset, 80 mg buccal daily, Week 8
[7] = obese subset, 80 mg buccal, Baseline (−2, 0)

C[C@]12CCCCC1=CC[C@@H]1[C@@H]2CC[C@]2(C)C(=O)[C@H](F)C[C@@H]12 [fluasterone, 16α-fluoro-5-androsten-17-one]
Plasma triglyceride Conc. (human patients; Elevated Triglyceride Group, Female (1), pretreatment): 540 ± 42 (n = 2) mg/dL
Plasma triglyceride Conc. (human patients; Elevated Triglyceride Group, Female (1), treatment 1600 mg daily, 14-day study): 118 ± 19 (n = 3) mg/dL
Plasma triglyceride Conc. (human patients; Elevated Triglyceride Group, Female and Male (4), pretreatment): 385 ± 116 (n = 8) mg/dL
Plasma triglyceride Conc. (human patients; Elevated Triglyceride Group, Female and Male (4), treatment 1600 mg daily, 14-day study): 154 ± 57 (n = 11) mg/dL
Plasma triglyceride Conc. (human patients; Elevated Triglyceride Group, Male (3), pretreatment): 333 ± 75 (n = 6) mg/dL
Plasma triglyceride Conc. (human patients; Elevated Triglyceride Group, Male (3), treatment 1600 mg daily, 14-day study): 168 ± 61 (n = 8) mg/dL
Plasma triglyceride Conc. (human patients; Normal Triglyceride Group (8 patients), pretreatment): 106 ± 34 (n = 16) mg/dL
Plasma triglyceride Conc. (human patients; Normal Triglyceride Group (8 patients), treatment 1600 mg daily, 14-day study): 128 ± 77 (n = 23) mg/dL
FPG levels of individuals with IFG (human patients; pretreatment): 6.28 ± 0.33 (6) mM
FPG levels of individuals with IFG (human patients; treatment 1600 mg daily, p < 0.02): 5.63 ± 0.45 (8) (p < 0.02) mM
HDL [1, 3]: 32.6 ± 6.4 (36) mg/dL
Triglycerides [1, 3]: 523 ± 311 (36) mg/dL
HDL ([1]; 20 mg buccal daily, Week 8): 33.3 ± 6.5 (9) mg/dL
Triglycerides ([1]; 20 mg buccal daily, Week 8): 538 ± 285 (9) mg/dL
HDL ([1]; 20 mg buccal, Baseline (−2, 0)): 31.6 ± 6.2 (18) mg/dL
Triglycerides ([1]; 20 mg buccal, Baseline (−2, 0)): 507 ± 192 (18) mg/dL
HDL [1, 4]: 41.1 ± 8.1 (32) mg/dL
Triglycerides [1, 4]: 342 ± 111 (32) mg/dL
HDL ([1]; 80 mg buccal daily, Week 8): 41.6 ± 9.4 (8) mg/dL
Triglycerides ([1]; 80 mg buccal daily, Week 8): 292 ± 92.4 (8) mg/dL
Effect on HDL level ([1]; 80 mg buccal dose, all patients): no apparent decline in HDL level
HDL ([1]; 80 mg buccal, Baseline (−2, 0)): 40.8 ± 8.9 (16) mg/dL
Triglycerides ([1]; 80 mg buccal, Baseline (−2, 0)): 455 ± 157 (16) mg/dL
Reduction of mean triglyceride level compared to baseline ([1]; 80 mg buccal, mean 8-week level): 36%
Reduction of mean triglyceride level compared to baseline ([1]; 80 mg buccal, mean of week 2, 4, 6, & 8): at least 25%
Effect on HDL levels ([1]; obese subset, 80 mg buccal): no decline in HDL levels from baseline
HDL [1, 5]: 40.3 ± 6.3 (20) mg/dL
Triglycerides [1, 5]: 313 ± 93.7 (20) mg/dL
HDL [1, 6]: 40.3 ± 4.6 (5) mg/dL
Triglycerides [1, 6]: 307 ± 106 (5) mg/dL
HDL [1, 7]: 39.2 ± 7.3 (10) mg/dL
Triglycerides [1, 7]: 472 ± 169 (10) mg/dL
Decline of triglyceride level from baseline ([1]; obese subset, 80 mg buccal, week 2, 4, 6, and 8, p=0.0368 vs combined placebo): 34%
Decline of triglyceride level from baseline ([1]; obese subset, 80 mg buccal, week 8): 35%
Mortality (mice died) ([2]; 5 mg/kg, i.p. group, about two weeks later): 1 mouse
Mortality (mice died) ([2]; 200 mg/kg oral group, about 17 days later): 1 mouse

Source: US20040019026A1, “Compounds useful for treating hypertriglyceridemia” (priority 2000, published 2004)
